The results in this text go back to publication PMC9405524, “Pre‐steady‐state kinetics and solvent isotope effects support the “billiard‐type” transport mechanism in Na ^+‐translocating pyrophosphatase” (Protein Science : A Publication of the Protein Society, 2022).

Structures are written as SMILES.

In this experiment the target is T1, Tm‐mPPase (Thermotoga maritima membrane pyrophosphatase) (Thermotoga maritima, UniProt Q9S5X0).
T1 construct: gene hppA; recombinant in E. coli C41(DE3), assayed in inverted membrane vesicles; homodimer, subunit mass 77 kDa
T1 sequence (Q9S5X0 1-726): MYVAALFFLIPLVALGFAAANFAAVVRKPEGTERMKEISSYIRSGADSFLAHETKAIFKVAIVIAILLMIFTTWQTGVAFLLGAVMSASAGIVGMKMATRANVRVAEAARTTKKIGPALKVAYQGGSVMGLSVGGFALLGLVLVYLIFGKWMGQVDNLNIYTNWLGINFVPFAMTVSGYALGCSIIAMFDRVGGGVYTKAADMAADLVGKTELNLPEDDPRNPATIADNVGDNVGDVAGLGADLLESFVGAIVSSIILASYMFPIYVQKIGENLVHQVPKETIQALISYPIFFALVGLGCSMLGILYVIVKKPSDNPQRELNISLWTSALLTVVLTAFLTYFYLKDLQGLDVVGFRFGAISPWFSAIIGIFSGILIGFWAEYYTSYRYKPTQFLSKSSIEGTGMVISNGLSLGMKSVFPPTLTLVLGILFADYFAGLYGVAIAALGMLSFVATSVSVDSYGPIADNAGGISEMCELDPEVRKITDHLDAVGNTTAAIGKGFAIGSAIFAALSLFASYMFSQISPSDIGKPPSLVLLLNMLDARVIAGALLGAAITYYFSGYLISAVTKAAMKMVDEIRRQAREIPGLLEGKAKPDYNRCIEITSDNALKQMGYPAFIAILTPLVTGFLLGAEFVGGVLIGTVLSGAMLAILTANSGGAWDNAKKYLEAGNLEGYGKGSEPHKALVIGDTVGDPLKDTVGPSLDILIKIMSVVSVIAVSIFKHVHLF
Description: inhibition of PPi hydrolysis, active-site titration in inverted membrane vesicles, Pi analyzer. The following applies: 25°C, pH 7.2, 5 mM MgCl2, 100 mM NaCl, no K+, 8 μM PPi; competitive; tight-binding fit; apparent, not corrected for substrate; read-out: K i ^app. In kind it is biochemical.

As to `NC(P(=O)(O)O)P(=O)(O)O` [AMDP], the Ki stood at 5 ± 2 nM.
